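All cell lines were grown in 96-well plates and treated with compound for 48 hours. The concentration for 50% growth inhibition is given as GI50. Definition used: TGI = concentration required for complete inhibition of growth.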
Tests used:
Test in all cases: growth of human tumour cells (NCI), 48 h
MDA-MB-231 breast = test system: MDA-MB-231 breast
NCI-H226 lung = test system: NCI-H226 lung
HCT-15 colon = test system: HCT-15 colon
K-562 leukemia = test system: K-562 leukemia
SR leukemia = test system: SR leukemia
NCI-H23 lung = test system: NCI-H23 lung
SK-MEL-28 melanoma = test system: SK-MEL-28 melanoma
T-47D breast = test system: T-47D breast
RPMI-8226 leukemia = test system: RPMI-8226 leukemia
NCI-H460 lung = test system: NCI-H460 lung

| SMILES | GI50 (MDA-MB-231 breast) [µM] | TGI (MDA-MB-231 breast) [µM] | GI50 (NCI-H226 lung) [µM] | TGI (NCI-H226 lung) [µM] | GI50 (HCT-15 colon) [µM] | TGI (HCT-15 colon) [µM] | GI50 (K-562 leukemia) [µM] | TGI (K-562 leukemia) [µM] | GI50 (SR leukemia) [µM] | TGI (SR leukemia) [µM] | GI50 (NCI-H23 lung) [µM] | TGI (NCI-H23 lung) [µM] | GI50 (SK-MEL-28 melanoma) [µM] | TGI (SK-MEL-28 melanoma) [µM] | GI50 (T-47D breast) [µM] | TGI (T-47D breast) [µM] | GI50 (RPMI-8226 leukemia) [µM] | TGI (RPMI-8226 leukemia) [µM] | GI50 (NCI-H460 lung) [µM] | TGI (NCI-H460 lung) [µM] |
| --- | --- | --- | --- | --- | --- | --- | --- | --- | --- | --- | --- | --- | --- | --- | --- | --- | --- | --- | --- | --- |
| CCOC(=O)c1ccc(C(O)CC(=O)OC(C)(C)C)[nH]1 (stereo not given) | 13 | > 100 | 94.1 | > 100 | 34.4 | > 100 | 52.6 | > 100 | 22.4 | > 100 | 44.4 | > 100 | 35.7 | > 100 | 38.4 | > 100 | > 100 | > 100 | 35.9 | > 100 |
| O=C1OC2(c3ccccc31)c1cc(I)c(O)c(I)c1Oc1c2cc(I)c(O)c1I |  | > 100 |  | > 100 |  | > 100 |  | > 100 |  | > 100 |  | > 100 |  | > 100 |  | > 100 |  | > 100 |  | > 100 |
| C[C@]12CC[C@H]3[C@@H](CC=C4C[C@@H](O)CC[C@@]43C)[C@@H]1C/C(=C\c1cccc(OCCCn3ccnc3)c1)[C@@H]2O | 13.2 | 32 | 16.1 | 43.4 | 10.2 | 38.9 | 3.38 | > 58.4 | 6.67 | 47.7 | 13 | 30.1 | 12.2 | 29.1 | 6.4 | 30.1 | 5.32 | 25 | 13.8 | 31.8 |
| CCOC(=O)CCc1c(C)c2ccc(O)cc2oc1=O |  | > 100 |  | > 100 |  | > 100 |  | > 100 |  | > 100 |  | > 100 |  | > 100 |  | > 100 |  | > 100 |  | > 100 |
| O=c1[nH]cnc2c1nnn2[C@@H]1O[C@H](CO)[C@@H](O)[C@H]1O | 7.68 | > 100 | 30.1 | > 100 | 2.8 | > 100 | 3.7 | > 100 | 4.77 | > 100 | 6.65 | > 100 | 31.5 | > 100 | 4.53 | > 100 | 2.68 | 25 | 2.51 | > 100 |
| O=C1NC(=O)[C@H]2C3C=CC([C@@H]12)[C@@H]1C(=O)NC(=O)[C@H]31 |  | > 100 |  | > 100 |  | > 100 |  | > 100 |  | > 100 |  | > 100 |  | > 100 |  | > 100 |  | > 100 |  | > 100 |
| O=C(Nc1cccc(-c2nc3ccccc3[nH]2)c1)c1cccc(NC(=O)c2ccco2)c1 | 1.98 | 4.85 | 2.72 | 15.9 | 3.06 | 10.8 | 2.03 | 4.36 | 2.33 | 6.53 | 2.15 | 4.94 | 1.75 | 3.31 | 1.75 | 3.79 | 2.33 | 8.16 | 1.67 | 3.03 |
| O=[N+]([O-])c1ccccc1/C=C/C=C1c2ccccc2-c2ccccc21 | > 100 | > 100 | > 100 | > 100 | > 100 | > 100 | > 100 | > 100 | > 100 | > 100 | > 100 | > 100 | > 100 | > 100 | > 100 | > 100 | > 100 | > 100 | > 100 | > 100 |
| OCC1OC(O)C(N=Cc2ccc3c(c2)OCO3)C(O)C1O (stereo not given) |  | > 100 |  | > 100 |  | > 100 |  | > 100 |  | > 100 |  | > 100 |  | > 100 |  | > 100 |  | > 100 |  | > 100 |
| O=C1CN2CCC1C/C2=C\c1ccnc2c(Cl)cccc12 (stereo not given) | 88.8 | > 100 | 90.5 | > 100 | 85.7 | > 100 | 32.2 | > 100 | 36.5 | > 100 | 57 | > 100 | > 100 | > 100 | 18.8 | > 100 | 29.5 | > 100 | 72.8 | > 100 |

— PubChem BioAssay (NCI)
